# Experimental data reported in publication PMC7377239, “Cardiovascular Effects of Polychlorinated Biphenyls and Their Major Metabolites” (Environmental Health Perspectives, 2020).
# Like-named read-outs stand apart in the source and are kept apart here.
# Legend:
# [1] = test system: HUVECs; assay: High-content imaging cytotoxicity in HUVECs, 24 h; format: cell-based, human; settings: Homo sapiens, HUVEC, 24 h, HUVEC, 24 hr
# Procedure, shortened: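 Confluent HUVEC monolayers, passages 1–5, received test chemicals for 24 h. Cytotoxicity was scored from triple-stain high-content images, with PODs defined by a one-SD deviation from 0.5% DMSO vehicle controls.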
# [2] = test system: iCell cardiomyocytes (human iPSC-derived cardiomyocytes); assay: High-content imaging of cytotoxicity and mitochondrial integrity in iPSC-CMs; format: cell-based; settings: Homo sapiens, Cardiomyocyte, cardiomyocytes (cm)
# Procedure, shortened: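 This assay measured cytotoxicity and mitochondrial integrity in iPSC cardiomyocytes held in 40μL maintenance medium. After compound exposure, a 2× staining solution with Hoechst 33342 (4μg/mL) and MitoTracker™ Orange (0.4μM) was applied for 15 min at 37°C. Cells were washed, fixed with 3.7% formaldehyde, imaged on DAPI and Cy3 channels, and scored in MetaXpress®.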
smiles,measurement,setting,value
"Clc1ccc(Cl)c(-c2cc(Cl)ccc2Cl)c1 [PCB 52, 2,2′,5,5′-tetrachlorobiphenyl]",minimal effective concentration,"[1]; cyto, read-out: POD huvec.cyto.24hr",0.67 µM
same,minimal effective concentration,"[1]; mito, read-out: POD huvec.mito.24hr",0.57 µM
same,minimal effective concentration,"[1]; mitoint, read-out: POD huvec.mitoint.24hr",6.01 µM
same,minimal effective concentration,"[1]; nma, read-out: POD huvec.nma.24hr",4.97 µM
same,minimal effective concentration,"[1]; tc, read-out: POD huvec.tc.24hr",0.67 µM
same,minimal effective concentration,"[2]; 1.5 h, cam, 90 min, read-out: POD cm.cam.90min",36 µM
same,minimal effective concentration,"[2]; 1.5 h, mii, 90 min, read-out: POD cm.mii.90min",10.4 µM
same,minimal effective concentration,"[2]; 1.5 h, mito, 90 min, read-out: POD cm.mito.90min",39.2 µM
same,minimal effective concentration,"[2]; 1.5 h, tc, 90 min, read-out: POD cm.tc.90min",38.9 µM
same,minimal effective concentration,"[2]; 24 h, cam, 24 hrs, read-out: POD cm.cam.24hrs",7.5 µM
same,minimal effective concentration,"[2]; 24 h, mii, 24 hrs, read-out: POD cm.mii.24hrs",34.4 µM
same,minimal effective concentration,"[2]; 24 h, mito, 24 hrs, read-out: POD cm.mito.24hrs",7.32 µM
same,minimal effective concentration,"[2]; 24 h, tc, 24 hrs, read-out: POD cm.tc.24hrs",8.11 µM
